Tests used:
[1] = Plasma protein binding in CD1 mouse after 5 hrs
MRC5 = assay: Cytotoxicity against human MRC5 cells; type: cell-based
Plasmodium falciparum = assay: Antimalarial activity against erythrocytic stages of Plasmodium falciparum 3D7 infected in human O positive RBC after 48 hrs by SYBR-green assay; type: functional, organism-based; details: 3D7, 48 h
Thymidylate kinase = molecular target: T1, Thymidylate kinase (Plasmodium falciparum (isolate 3D7), UniProt Q8I4S1); assay: Inhibition of recombinant Plasmodium falciparum TMPK using TMP as substrate by pyruvate kinase and lactate dehydrogenase enzyme coupled assay
T1 sequence (Q8I4S1 whole entry): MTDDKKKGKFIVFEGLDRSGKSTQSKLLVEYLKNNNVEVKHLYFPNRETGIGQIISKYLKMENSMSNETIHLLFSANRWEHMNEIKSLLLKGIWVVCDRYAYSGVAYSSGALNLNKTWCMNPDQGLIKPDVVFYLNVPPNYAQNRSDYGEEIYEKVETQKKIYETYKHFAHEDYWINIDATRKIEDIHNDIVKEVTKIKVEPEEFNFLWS

fraction unbound at 5 h [1]	SMILES	CC50 (MRC5)	EC50 (Plasmodium falciparum)	Ki (Thymidylate kinase)
0.059	Cc1cn([C@@H]2C[C@H](O)[C@@H](CNC(=O)Nc3ccc(OCc4ccccc4Cl)cc3)O2)c(=O)[nH]c1=O	29 µM	0.028 µM	
0.08	Cc1cn([C@@H]2C[C@H](O)[C@@H](CNC(=O)Nc3ccc(-c4ccccc4)cc3)O2)c(=O)[nH]c1=O		0.29 µM	
0.188	Cc1cn([C@@H]2C[C@H](O)[C@@H](CNC(=O)Nc3ccc(OCc4ccccc4)cc3)O2)c(=O)[nH]c1=O		0.24 µM	
0.095	Cc1cn([C@@H]2C[C@H](O)[C@@H](CNC(=O)Nc3ccc(Oc4ccccc4)cc3)O2)c(=O)[nH]c1=O	44 µM	0.24 µM	

Second part, the compound before the results:

SMILES	fraction unbound at 5 h [1]	CC50 (MRC5)	EC50 (Plasmodium falciparum)	Ki (Thymidylate kinase)
Cc1cn([C@@H]2C[C@H](O)[C@@H](CNC(=O)Nc3ccc(Cl)cc3)O2)c(=O)[nH]c1=O		> 50 µM	2.6 µM	114 µM
Cc1cn([C@@H]2C[C@H](O)[C@@H](CNC(=O)Nc3ccc(C(C)(C)C)cc3)O2)c(=O)[nH]c1=O		> 50 µM	2.9 µM	167 µM
Cc1cn([C@@H]2C[C@H](O)[C@@H](CNC(=O)Nc3ccc(N4CCCCC4)cc3)O2)c(=O)[nH]c1=O	0.477		0.34 µM	
Cc1cn([C@@H]2C[C@H](O)[C@@H](CNC(=S)Nc3ccc(Cl)c(C(F)(F)F)c3)O2)c(=O)[nH]c1=O		> 50 µM	2.3 µM	31 µM
Cc1cn([C@@H]2C[C@H](O)[C@@H](CNC(=O)Nc3ccc(Cl)c(C(F)(F)F)c3)O2)c(=O)[nH]c1=O		> 50 µM	9 µM	88 µM
Cc1cn([C@@H]2C[C@H](O)[C@@H](CNC(=O)Nc3ccc(Br)cc3)O2)c(=O)[nH]c1=O		> 50 µM	1.5 µM	> 1000 µM
